The subject of one data set is NCI H187 cells. Put plainly: In-vitro cancer cell growth inhibition assay (MTT). Type of data set: cell-based. Conditions: Homo sapiens. As for the experimental part: The compounds of the present invention were evaluated for their ability to inhibit the growth of various cell line models of small cell lung cancer (SCLC), colon cancer, pancreatic cancer and triple negative breast cancer (TNBC) in-vitro. Details of the cell lines and their respective complete growth media are described in Table 3. The growth inhibition assay was carried out as described below. Briefly, cells in complete growth media were seeded in 96-well plates at appropriate cell densities (seeding density details described in Table 3) and incubated at 37° C., 5% CO2 (3-4 hours for NCI-H526, NCI-H69, NCI-H187 and overnight for the rest of the cells). Serial dilutions of test compound in DMSO were added to the cells while maintaining the final DMSO concentration of 0.4%-0.5% in the well. […] Subsequently, MTT (final concentration 0.5 mg/mL in media) was incubated with the cells at 37° C., 5% CO2 for 4-5 hours. The formazan crystals were dissolved overnight at 37° C., 5% CO2 using 100 μL extractant (10% SDS in 0.01N HCl) and quantified using absorbance at 570 nm with reference wavelength 630 nm. Growth inhibition was represented as percent decrease in absorbance compared to vehicle treated cells.

The subject of the next data set is MDA-MB-231 cells. Nature of the data set: In-vitro cancer cell growth inhibition assay (MTT). It is filed as cell-based. The conditions noted are these: Homo sapiens, read-out: IC50 (nM) MDA-MB-231. As to the method: (§1) The compounds of the present invention were evaluated for their ability to inhibit the growth of various cell line models of small cell lung cancer (SCLC), colon cancer, pancreatic cancer and triple negative breast cancer (TNBC) in-vitro. Details of the cell lines and their respective complete growth media are described in Table 3. The growth inhibition assay was carried out as described below. Briefly, cells in complete growth media were seeded in 96-well plates at appropriate cell densities (seeding density details described in Table 3) and incubated at 37° C., 5% CO2 (3-4 hours for NCI-H526, NCI-H69, NCI-H187 and overnight for the rest of the cells). Serial dilutions of test compound in DMSO were added to the cells while maintaining the final DMSO concentration of 0.4%-0.5% in the well. Plates were incubated for 96-144 h (the exact duration for each assay is described in Table 3) at 37° C., 5% CO2. Subsequently, MTT (final concentration 0.5 mg/mL in media) was incubated with the cells at 37° C., 5% CO2 for 4-5 hours. The formazan crystals were dissolved overnight at 37° C., 5% CO2 using 100 μL extractant (10% SDS in 0.01N HCl) and quantified using absorbance at 570 nm with reference wavelength 630 nm. Growth inhibition was represented as percent decrease in absorbance compared to vehicle treated cells.

The test system of a further data set is MX-1 cells. Put plainly: In-vitro cancer cell growth inhibition assay (MTT). It is filed as cell-based. Conditions: Homo sapiens, read-out: IC50 (nM) MX-1. As for the experimental part:
as §1

The test system of another data set is NCI H526 cells. Put plainly: In-vitro cancer cell growth inhibition assay (MTT). It is filed as cell-based. The conditions noted are these: Homo sapiens, NCI-H526, 96-144 h, read-out: IC50 (nM) NCI H526. As to the method:
as §1

The subject of another data set is PANC-1 cells. Put plainly: In-vitro cancer cell growth inhibition assay (MTT). It is filed as cell-based. Conditions: Homo sapiens, read-out: IC50 (nM) PANC-1. As to the method: as §1
In the next data set the test system is NCI H69 cells. Put plainly: In-vitro cancer cell growth inhibition assay (MTT). Type of data set: cell-based. The conditions noted are these: Homo sapiens, read-out: IC50 (nM) NCI H69. As for the experimental part: as §1
The next data set relates to MDA-MB-468 cells. Nature of the data set: In-vitro cancer cell growth inhibition assay (MTT). It is filed as cell-based. The conditions noted are these: Homo sapiens, read-out: IC50 (nM) MDA-MB-468. As to the method: as §1
A further data set deals with HT-29 cells. Put plainly: In-vitro cancer cell growth inhibition assay (MTT). Type of data set: cell-based. The conditions noted are these: Homo sapiens, read-out: IC50 (nM) HT-29. As for the experimental part:
as §1

Data set [1] in a line: Buffer stability (phosphate buffer, 37° C., HPLC). Type of data set: physicochemical. As to the method: The representative compounds were first dissolved in a minimum quantity of DMSO in a volumetric flask and diluted up to the mark with diluent (water: acetonitrile 30:70). […] After the elapsed time, the buffer samples were diluted 4 times with acetonitrile and injected into an HPLC system. Quantification of representative compounds was done by HPLC.
HPLC method: Chromatographic separation was achieved on a Hypersil BDS C18 (100×4.6 mm, 5 μ) column using 25 mM KH2PO4 buffer (pH 7 with TEA): acetonitrile, 90:10 v/v as mobile phase-A and 25 mM KH2PO4 buffer (pH 7 with TEA): acetonitrile 30:70 v/v as mobile phase-B. The gradient started with initially 5% B to 45% B in 10 mins followed by 80% B in 22 mins and held up to 25 mins and then returned to initial conditions at 26 mins and continued up to 30 mins. The injection volume was kept 10 μL and the flow rate was kept at 1.0 mL/min. The UV-Vis Detector was set at 220 nm, the column oven was set at 37° C. and the sample cooler was set at […]. Total chromatographic runtime was 30 min.

The mark [2] stands for this setting: NCI-H187, read-out: IC50 (nM) NCI H187.

Where a name gives a salt, the structure may show the parent alone. Read-outs that look alike come from different tables or passages of the source.

In the case of `CCc1c2c(nc3ccc(O)cc13)-c1cc3c(c(=O)n1C2)COC(=O)[C@@]3(CC)OC(=O)OCCSSCCNC(=O)c1ccc(N2CCN(C)CC2)cc1` [Compound I.5, 2-(2-{4-[4-Methylpiperazin-1-yl]benzoylamino}ethyldisulfanyl) ethyl [(4S)-4,11-diethyl-3,4,12,14-tetrahydro-9-hydroxy-1H-pyrano[3′,4′:6,7]indolizino[1,2-b]quinoline-3,14-(4H,12H)dione-4-yl]carbonate dihydrochloride], the IC50 – broadly, the concentration that inhibits the measured activity by half – in the data set with NCI H187 cells (setting [2]) was determined as 0.77 nM; in the data set on MDA-MB-231 cells (MDA-MB-231, 96 h), 119 nM; in the data set with MX-1 cells (MX1, 144 h) it was 4.6 nM; with NCI H526 cells it was 2.06 nM; with PANC-1 cells (PANC-1, 96 h) it was 910 nM; with NCI H69 cells (NCI-H69, 144 h), 1.3 nM. Moreover, the IC50 in the data set with MDA-MB-468 cells (MDA-MB-468, 96 h) stood at 9.3 nM; in the data set on HT-29 cells (HT-29, 96 h), 48.3 nM. Besides, the “% of Unconverted Compounds of Formula I” value in data set [1] (pH 4.7, 0 hr, 100 μg/ml (footnote *)) worked out at 100%; in data set [1] (pH 4.7, 2 hr, 100 μg/ml (footnote *)) it was 82.5%; in [1] (pH 4.7, 4 hr, 100 μg/ml (footnote *)), 86.3%; in data set [1] (pH 4.7, 6 hr, 100 μg/ml (footnote *)), 79.9%; in data set [1] (pH 4.7, 8 hr, 100 μg/ml (footnote *)), 77.2%; in [1] (pH 6.0, 0 hr, 100 μg/ml (footnote *)), 100%. The “% of Unconverted Compounds of Formula I” value in [1] (pH 6.0, 2 hr, 100 μg/ml (footnote *)) is 94.1%; in data set [1] (pH 6.0, 4 hr, 100 μg/ml (footnote *)), 100%; in data set [1] (pH 6.0, 6 hr, 100 μg/ml (footnote *)) it was 100%; in [1] (pH 6.0, 8 hr, 100 μg/ml (footnote *)) it was 98.4%; in data set [1] (pH 7.4, 0 hr, 100 μg/ml (footnote *)), 100%; in [1] (pH 7.4, 2 hr, 100 μg/ml (footnote *)), 88.0%. Also, the “% of Unconverted Compounds of Formula I” value in data set [1] (pH 7.4, 4 hr, 100 μg/ml (footnote *)) amounted to 82.8%; in [1] (pH 7.4, 6 hr, 100 μg/ml (footnote *)) it was 82.5%; in [1] (pH 7.4, 8 hr, 100 μg/ml (footnote *)), 82.4%.
Regarding `CCc1c2c(nc3ccc(O)cc13)-c1cc3c(c(=O)n1C2)COC(=O)[C@@]3(CC)OC(=O)OCCSSCCOC(=O)N(C)c1ccc(N2CCN(C)CC2)cc1.Cl` [Compound I.3, 2-(2-{N-Methyl-N-[4-(4-methylpiperazin-1-yl)phenyl]carbamoyloxy}ethyldisulfanyl)ethyl [(4S)-4,11-diethyl-3,4,12,14-tetrahydro-9-hydroxy-1H-pyrano[3′,4′:6,7]indolizino[1,2-b]quinoline-3,14-(4H,12H)dione-4-yl] carbonate hydrochloride], the IC50 in the data set on NCI H187 cells (setting [2]) worked out at 0.68 nM; in the data set with NCI H526 cells, 1.91 nM; in the data set with PANC-1 cells (PANC-1, 96 h) it was 862 nM; with NCI H69 cells (NCI-H69, 144 h), 1.2 nM; with HT-29 cells (HT-29, 96 h), 43.7 nM. The “% of Unconverted Compounds of Formula I” value in data set [1] (pH 4.7, 0 hr, 200 μg/ml) is given as 100%; in data set [1] (pH 4.7, 2 hr, 200 μg/ml), 100%; in data set [1] (pH 4.7, 4 hr, 200 μg/ml), 100%; in data set [1] (pH 4.7, 6 hr, 200 μg/ml), 100%; in data set [1] (pH 4.7, 8 hr, 200 μg/ml), 100%; in data set [1] (pH 6.0, 0 hr, 200 μg/ml), 100%. The “% of Unconverted Compounds of Formula I” value in data set [1] (pH 6.0, 2 hr, 200 μg/ml) was determined as 93.8%; in data set [1] (pH 6.0, 4 hr, 200 μg/ml) it was 97.8%; in data set [1] (pH 6.0, 6 hr, 200 μg/ml) it was 98.2%; in data set [1] (pH 6.0, 8 hr, 200 μg/ml) it was 100%; in data set [1] (pH 7.4, 0 hr, 200 μg/ml) it was 100%; in data set [1] (pH 7.4, 2 hr, 200 μg/ml), 100%. Further, the “% of Unconverted Compounds of Formula I” value in data set [1] (pH 7.4, 4 hr, 200 μg/ml) stood at 100%; in data set [1] (pH 7.4, 6 hr, 200 μg/ml), 100%; in [1] (pH 7.4, 8 hr, 200 μg/ml), 100%.
In the case of `CCc1c2c(nc3ccc(OC(=O)N4CCC(N5CCCCC5)CC4)cc13)-c1cc3c(c(=O)n1C2)COC(=O)[C@]3(O)CC` [Irinotecan HCl trihydrate, reference compound], the IC50 with NCI H187 cells (NCI-H187, MTT, read-out: IC50 (nM) NCI H187) stood at 385 nM; in the data set on MDA-MB-231 cells (MDA-MB-231, 96 hr, MTT), 21700 nM; in the data set with MX-1 cells (MX1, MX-1, 144 hr, MTT), 5910 nM; with NCI H526 cells (MTT) it was 750 nM; in the data set with PANC-1 cells (PANC-1, 96 hr, MTT), 23000 nM; in the data set with NCI H69 cells (NCI-H69, 144 hr, MTT), 473 nM. Further, the IC50 with MDA-MB-468 cells (MDA-MB-468, 96 hr, MTT) came to 4580 nM; in the data set on HT-29 cells (HT-29, 96 hr, MTT), 14000 nM.

The record behind these values is US20220242874A1, “CAMPTOTHECIN DERIVATIVES” (SUN PHARMA ADVANCED RESEARCH COMPANY LIMITED, priority 2019, published 2022).
